In the kinase profiling compilation of Christmann-Franck et al. (2016):

How the values were obtained:
Assay in all cases: KINOMEscan competition binding
Conditions in all cases: compound 10.0 µM
ERBB2 (human) = ERBB2 (human) (UniProt P04626)
[1] = target: JAK1 JH2 pseudokinase (human) (UniProt P23458)
PDGFRB (human) = PDGFRB (human) (UniProt P09619)
FRK (human) = FRK (human) (UniProt P42685)
MAP3K9 (human) = MAP3K9 (human) (UniProt P80192)
PAK7 (human) = PAK7 (human) (UniProt Q9P286)
[2] = test system: FLT3 (human), P36888 [N841I]
PRPF4B (human) = PRPF4B (human) (UniProt Q13523)
SRC (human) = SRC (human) (UniProt P12931)
CDK14 (human) = CDK14 (human) (UniProt O94921)
FGFR4 (human) = FGFR4 (human) (UniProt P22455)
[3] = test system: PIK3CA (human), P42336 [H1047Y]
PIK3CA (human), P42336 [H1047Y], sequence (P42336 whole entry H1047Y, looked up): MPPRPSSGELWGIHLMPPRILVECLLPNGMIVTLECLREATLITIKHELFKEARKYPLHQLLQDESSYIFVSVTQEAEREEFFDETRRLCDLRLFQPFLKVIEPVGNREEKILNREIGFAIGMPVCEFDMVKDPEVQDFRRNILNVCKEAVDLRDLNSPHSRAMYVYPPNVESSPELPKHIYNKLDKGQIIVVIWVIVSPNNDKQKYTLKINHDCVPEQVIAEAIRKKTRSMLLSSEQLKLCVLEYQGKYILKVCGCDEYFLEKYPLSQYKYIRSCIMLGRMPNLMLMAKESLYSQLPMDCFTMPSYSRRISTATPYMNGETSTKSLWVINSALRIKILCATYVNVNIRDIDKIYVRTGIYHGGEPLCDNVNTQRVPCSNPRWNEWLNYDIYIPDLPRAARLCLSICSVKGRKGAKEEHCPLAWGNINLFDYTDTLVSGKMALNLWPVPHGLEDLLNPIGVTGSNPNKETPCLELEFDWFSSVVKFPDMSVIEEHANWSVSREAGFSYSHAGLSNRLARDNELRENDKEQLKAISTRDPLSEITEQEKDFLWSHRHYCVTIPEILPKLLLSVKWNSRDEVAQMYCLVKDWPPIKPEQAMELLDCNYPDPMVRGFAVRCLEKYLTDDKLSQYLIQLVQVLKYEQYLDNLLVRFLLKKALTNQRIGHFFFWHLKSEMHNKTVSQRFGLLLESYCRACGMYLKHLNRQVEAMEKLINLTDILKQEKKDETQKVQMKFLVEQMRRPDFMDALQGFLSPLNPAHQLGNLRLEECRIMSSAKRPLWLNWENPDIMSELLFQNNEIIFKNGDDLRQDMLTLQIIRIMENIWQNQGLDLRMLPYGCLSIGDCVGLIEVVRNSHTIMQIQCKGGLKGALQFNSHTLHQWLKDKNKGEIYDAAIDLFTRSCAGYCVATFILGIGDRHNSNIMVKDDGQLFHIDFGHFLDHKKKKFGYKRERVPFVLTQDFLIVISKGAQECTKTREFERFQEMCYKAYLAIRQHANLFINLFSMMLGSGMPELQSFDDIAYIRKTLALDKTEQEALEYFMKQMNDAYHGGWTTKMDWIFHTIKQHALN

RAF1 (human) = RAF1 (human) (UniProt P04049)
RPS6KA6 KD1 (human) = RPS6KA6 KD1 (human) (UniProt Q9UK32)
ULK1 (human) = ULK1 (human) (UniProt O75385)
MATK (human) = MATK (human) (UniProt P42679)
PRKD1 (human) = PRKD1 (human) (UniProt Q15139)
PRKD3 (human) = PRKD3 (human) (UniProt O94806)
CSF1R (human) = CSF1R (human) (UniProt P07333)
EPHB4 (human) = EPHB4 (human) (UniProt P54760)
EPHA3 (human) = EPHA3 (human) (UniProt P29320)
MAP3K6 (human) = MAP3K6 (human) (UniProt O95382)
[4] = test system: RET (human), P07949 [M918T]
CSNK1G3 (human) = CSNK1G3 (human) (UniProt Q9Y6M4)
ERBB3 (human) = ERBB3 (human) (UniProt P21860)
MELK (human) = MELK (human) (UniProt Q14680)
FGR (human) = FGR (human) (UniProt P09769)
FGR (human), sequence (P09769 whole entry, looked up): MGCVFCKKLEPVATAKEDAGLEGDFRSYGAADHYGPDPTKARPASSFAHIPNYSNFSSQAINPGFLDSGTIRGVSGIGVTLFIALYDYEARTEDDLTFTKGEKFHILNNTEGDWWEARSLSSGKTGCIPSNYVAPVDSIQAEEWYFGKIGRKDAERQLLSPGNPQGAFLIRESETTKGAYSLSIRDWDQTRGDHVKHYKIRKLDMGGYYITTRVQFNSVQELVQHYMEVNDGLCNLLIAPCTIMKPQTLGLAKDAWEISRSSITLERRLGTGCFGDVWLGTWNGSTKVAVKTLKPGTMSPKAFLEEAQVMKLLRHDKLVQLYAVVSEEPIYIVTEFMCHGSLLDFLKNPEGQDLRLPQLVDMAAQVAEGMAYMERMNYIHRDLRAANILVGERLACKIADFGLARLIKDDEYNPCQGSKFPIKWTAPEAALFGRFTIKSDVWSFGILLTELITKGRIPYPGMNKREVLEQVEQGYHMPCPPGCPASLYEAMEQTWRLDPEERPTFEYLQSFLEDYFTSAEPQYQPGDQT

FLT4 (human) = FLT4 (human) (UniProt P35916)
MAPKAPK2 (human) = MAPKAPK2 (human) (UniProt P49137)
KDR (human) = KDR (human) (UniProt P35968)
ROS1 (human) = ROS1 (human) (UniProt P08922)
STK16 (human) = STK16 (human) (UniProt O75716)
STK16 (human), sequence (O75716 whole entry, looked up): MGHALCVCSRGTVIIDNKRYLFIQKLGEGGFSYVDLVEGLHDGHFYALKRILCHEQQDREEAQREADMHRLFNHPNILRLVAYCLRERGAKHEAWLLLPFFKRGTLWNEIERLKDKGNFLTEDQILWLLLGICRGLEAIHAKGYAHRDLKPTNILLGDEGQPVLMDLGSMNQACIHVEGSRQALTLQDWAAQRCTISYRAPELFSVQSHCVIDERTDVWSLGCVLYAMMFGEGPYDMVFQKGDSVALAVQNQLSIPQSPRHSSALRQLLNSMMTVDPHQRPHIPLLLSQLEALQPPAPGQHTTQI

BMX (human) = BMX (human) (UniProt P51813)
BMX (human), sequence (P51813 whole entry, looked up): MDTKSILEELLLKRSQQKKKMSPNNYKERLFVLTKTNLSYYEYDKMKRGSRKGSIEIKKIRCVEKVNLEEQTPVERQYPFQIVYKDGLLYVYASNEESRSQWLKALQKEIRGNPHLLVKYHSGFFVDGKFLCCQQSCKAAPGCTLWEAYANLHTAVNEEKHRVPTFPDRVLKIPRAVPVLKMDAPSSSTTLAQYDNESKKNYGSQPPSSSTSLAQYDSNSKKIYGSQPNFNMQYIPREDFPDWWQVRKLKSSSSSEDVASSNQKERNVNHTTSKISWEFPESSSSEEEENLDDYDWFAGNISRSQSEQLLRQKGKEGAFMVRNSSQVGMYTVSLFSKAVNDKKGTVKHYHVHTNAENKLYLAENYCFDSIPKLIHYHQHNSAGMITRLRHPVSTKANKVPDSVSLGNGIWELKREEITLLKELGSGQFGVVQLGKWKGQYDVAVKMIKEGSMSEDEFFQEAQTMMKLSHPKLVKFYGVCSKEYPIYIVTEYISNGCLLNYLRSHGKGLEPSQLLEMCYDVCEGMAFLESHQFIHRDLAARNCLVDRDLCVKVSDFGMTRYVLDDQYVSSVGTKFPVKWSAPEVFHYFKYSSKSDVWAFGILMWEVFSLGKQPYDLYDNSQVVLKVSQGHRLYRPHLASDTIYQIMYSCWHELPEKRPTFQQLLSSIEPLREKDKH

CSK (human) = CSK (human) (UniProt P41240)
FYN (human) = FYN (human) (UniProt P06241)
FLT1 (human) = FLT1 (human) (UniProt P17948)
RIPK4 (human) = RIPK4 (human) (UniProt P57078)
RIPK4 (human), sequence (P57078 whole entry, looked up): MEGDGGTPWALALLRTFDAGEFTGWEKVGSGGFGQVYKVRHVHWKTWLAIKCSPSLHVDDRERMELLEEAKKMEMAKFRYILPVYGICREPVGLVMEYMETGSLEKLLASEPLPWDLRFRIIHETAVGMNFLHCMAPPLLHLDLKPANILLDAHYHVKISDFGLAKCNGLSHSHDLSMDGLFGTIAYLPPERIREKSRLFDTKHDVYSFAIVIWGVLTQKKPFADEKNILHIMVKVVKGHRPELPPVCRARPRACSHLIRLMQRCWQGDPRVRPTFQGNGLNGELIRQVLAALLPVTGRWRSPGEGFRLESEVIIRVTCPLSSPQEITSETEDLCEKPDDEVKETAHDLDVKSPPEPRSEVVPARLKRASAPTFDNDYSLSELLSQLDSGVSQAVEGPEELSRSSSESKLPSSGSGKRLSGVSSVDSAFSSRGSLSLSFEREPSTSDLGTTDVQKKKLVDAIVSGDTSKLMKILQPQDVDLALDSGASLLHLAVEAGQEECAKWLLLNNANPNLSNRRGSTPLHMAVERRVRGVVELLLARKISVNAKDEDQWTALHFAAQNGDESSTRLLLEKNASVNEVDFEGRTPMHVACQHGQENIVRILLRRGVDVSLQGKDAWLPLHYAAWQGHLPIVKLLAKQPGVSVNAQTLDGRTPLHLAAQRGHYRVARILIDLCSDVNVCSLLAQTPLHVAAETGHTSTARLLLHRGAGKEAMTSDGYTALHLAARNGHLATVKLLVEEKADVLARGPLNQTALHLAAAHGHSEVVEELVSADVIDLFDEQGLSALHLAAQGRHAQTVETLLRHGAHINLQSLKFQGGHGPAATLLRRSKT

BMPR1A (human) = BMPR1A (human) (UniProt P36894)
MAPK10 (human) = MAPK10 (human) (UniProt P53779)
MAPK10 (human), sequence (P53779 whole entry, looked up): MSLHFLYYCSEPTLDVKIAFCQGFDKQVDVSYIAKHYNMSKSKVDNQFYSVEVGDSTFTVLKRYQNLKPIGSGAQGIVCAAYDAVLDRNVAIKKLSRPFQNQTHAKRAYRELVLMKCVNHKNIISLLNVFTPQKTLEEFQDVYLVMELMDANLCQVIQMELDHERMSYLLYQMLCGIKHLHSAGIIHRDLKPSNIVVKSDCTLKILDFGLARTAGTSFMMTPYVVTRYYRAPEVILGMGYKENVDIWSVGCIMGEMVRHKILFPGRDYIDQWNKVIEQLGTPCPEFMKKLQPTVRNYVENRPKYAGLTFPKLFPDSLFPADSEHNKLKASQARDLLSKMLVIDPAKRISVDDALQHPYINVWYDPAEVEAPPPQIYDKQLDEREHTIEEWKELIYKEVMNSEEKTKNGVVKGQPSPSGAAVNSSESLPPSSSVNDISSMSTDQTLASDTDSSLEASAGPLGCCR

CDC42BPB (human) = CDC42BPB (human) (UniProt Q9Y5S2)
[5] = test system: ABL1 (human), P00519 [Q252H]
CAMK1D (human) = CAMK1D (human) (UniProt Q8IU85)

PDGFRB (human), sequence (P09619 whole entry, looked up): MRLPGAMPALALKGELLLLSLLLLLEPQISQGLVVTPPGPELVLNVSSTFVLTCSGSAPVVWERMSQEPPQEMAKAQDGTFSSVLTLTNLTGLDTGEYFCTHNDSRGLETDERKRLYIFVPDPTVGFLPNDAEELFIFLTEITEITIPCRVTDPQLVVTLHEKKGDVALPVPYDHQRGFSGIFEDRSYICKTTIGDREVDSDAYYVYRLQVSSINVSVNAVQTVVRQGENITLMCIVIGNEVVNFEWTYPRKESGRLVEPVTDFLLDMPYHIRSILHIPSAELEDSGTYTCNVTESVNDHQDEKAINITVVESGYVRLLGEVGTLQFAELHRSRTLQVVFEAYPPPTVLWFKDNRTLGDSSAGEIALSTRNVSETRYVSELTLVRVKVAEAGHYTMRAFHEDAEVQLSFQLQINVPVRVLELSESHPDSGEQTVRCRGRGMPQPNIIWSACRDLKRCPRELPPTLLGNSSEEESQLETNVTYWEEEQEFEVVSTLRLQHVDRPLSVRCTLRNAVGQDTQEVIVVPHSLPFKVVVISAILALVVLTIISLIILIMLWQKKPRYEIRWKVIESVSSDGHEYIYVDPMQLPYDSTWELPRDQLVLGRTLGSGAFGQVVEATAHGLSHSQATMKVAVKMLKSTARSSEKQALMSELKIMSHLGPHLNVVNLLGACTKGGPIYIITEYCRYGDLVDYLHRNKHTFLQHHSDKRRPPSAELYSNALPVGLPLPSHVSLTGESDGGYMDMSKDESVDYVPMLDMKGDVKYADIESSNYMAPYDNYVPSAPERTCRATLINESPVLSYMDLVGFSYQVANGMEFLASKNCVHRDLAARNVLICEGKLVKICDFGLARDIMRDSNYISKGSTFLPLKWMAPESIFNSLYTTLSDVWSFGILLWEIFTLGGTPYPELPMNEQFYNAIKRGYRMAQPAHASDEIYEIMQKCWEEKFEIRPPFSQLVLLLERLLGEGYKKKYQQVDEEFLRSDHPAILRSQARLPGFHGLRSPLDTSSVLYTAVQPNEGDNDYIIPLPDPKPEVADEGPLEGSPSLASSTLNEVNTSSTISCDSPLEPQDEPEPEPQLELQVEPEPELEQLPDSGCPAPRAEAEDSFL

O=C1Nc2cc(Br)ccc2/C1=C1/Nc2ccccc2/C1=N\O
kinase still bound, per cent of control (ERBB2 (human)): 87% | kinase still bound, per cent of control [1]: 48% | kinase still bound, per cent of control (PDGFRB (human)): 0% | kinase still bound, per cent of control (FRK (human)): 2.6% | kinase still bound, per cent of control (MAP3K9 (human)): 3.4% | kinase still bound, per cent of control (PAK7 (human)): 17% | kinase still bound, per cent of control [2]: 0% | kinase still bound, per cent of control (PRPF4B (human)): 13% | kinase still bound, per cent of control (SRC (human)): 0.15% | kinase still bound, per cent of control (CDK14 (human)): 18% | kinase still bound, per cent of control (FGFR4 (human)): 21% | kinase still bound, per cent of control [3]: 100% | kinase still bound, per cent of control (RAF1 (human)): 90% | kinase still bound, per cent of control (RPS6KA6 KD1 (human)): 51% | kinase still bound, per cent of control (ULK1 (human)): 7.3% | kinase still bound, per cent of control (MATK (human)): 30% | kinase still bound, per cent of control (PRKD1 (human)): 100% | kinase still bound, per cent of control (PRKD3 (human)): 70% | kinase still bound, per cent of control (CSF1R (human)): 1.2% | kinase still bound, per cent of control (EPHB4 (human)): 48% | kinase still bound, per cent of control (EPHA3 (human)): 1.7% | kinase still bound, per cent of control (MAP3K6 (human)): 41% | kinase still bound, per cent of control [4]: 0% | kinase still bound, per cent of control (CSNK1G3 (human)): 81% | kinase still bound, per cent of control (ERBB3 (human)): 61% | kinase still bound, per cent of control (MELK (human)): 8.7% | kinase still bound, per cent of control (FGR (human)): 1.4% | kinase still bound, per cent of control (FLT4 (human)): 2.5% | kinase still bound, per cent of control (MAPKAPK2 (human)): 100% | kinase still bound, per cent of control (KDR (human)): 0.9% | kinase still bound, per cent of control (ROS1 (human)): 100% | kinase still bound, per cent of control (STK16 (human)): 0.8% | kinase still bound, per cent of control (BMX (human)): 42% | kinase still bound, per cent of control (CSK (human)): 56% | kinase still bound, per cent of control (FYN (human)): 1.6% | kinase still bound, per cent of control (FLT1 (human)): 1.3% | kinase still bound, per cent of control (RIPK4 (human)): 40% | kinase still bound, per cent of control (BMPR1A (human)): 66% | kinase still bound, per cent of control (MAPK10 (human)): 12% | kinase still bound, per cent of control (CDC42BPB (human)): 90% | kinase still bound, per cent of control [5]: 3.8% | kinase still bound, per cent of control (CAMK1D (human)): 45%

COc1ccc(CNC(=O)Nc2ncc([N+](=O)[O-])s2)cc1
kinase still bound, per cent of control (ERBB2 (human)): 95% | kinase still bound, per cent of control [1]: 89% | kinase still bound, per cent of control (PDGFRB (human)): 88% | kinase still bound, per cent of control (FRK (human)): 98% | kinase still bound, per cent of control (PAK7 (human)): 96% | kinase still bound, per cent of control [2]: 89% | kinase still bound, per cent of control (PRPF4B (human)): 100% | kinase still bound, per cent of control (SRC (human)): 78% | kinase still bound, per cent of control (CDK14 (human)): 95% | kinase still bound, per cent of control (FGFR4 (human)): 100% | kinase still bound, per cent of control [3]: 100% | kinase still bound, per cent of control (RAF1 (human)): 63% | kinase still bound, per cent of control (RPS6KA6 KD1 (human)): 100% | kinase still bound, per cent of control (ULK1 (human)): 100% | kinase still bound, per cent of control (MATK (human)): 95% | kinase still bound, per cent of control (PRKD1 (human)): 69% | kinase still bound, per cent of control (PRKD3 (human)): 100% | kinase still bound, per cent of control (CSF1R (human)): 97% | kinase still bound, per cent of control (EPHB4 (human)): 100% | kinase still bound, per cent of control (EPHA3 (human)): 100% | kinase still bound, per cent of control (MAP3K6 (human)): 85% | kinase still bound, per cent of control [4]: 100% | kinase still bound, per cent of control (CSNK1G3 (human)): 59% | kinase still bound, per cent of control (ERBB3 (human)): 73% | kinase still bound, per cent of control (MELK (human)): 63% | kinase still bound, per cent of control (FGR (human)): 100% | kinase still bound, per cent of control (FLT4 (human)): 100% | kinase still bound, per cent of control (MAPKAPK2 (human)): 94% | kinase still bound, per cent of control (KDR (human)): 67% | kinase still bound, per cent of control (ROS1 (human)): 100% | kinase still bound, per cent of control (STK16 (human)): 28% | kinase still bound, per cent of control (BMX (human)): 100% | kinase still bound, per cent of control (CSK (human)): 100% | kinase still bound, per cent of control (FYN (human)): 87% | kinase still bound, per cent of control (FLT1 (human)): 57% | kinase still bound, per cent of control (RIPK4 (human)): 100% | kinase still bound, per cent of control (BMPR1A (human)): 78% | kinase still bound, per cent of control (MAPK10 (human)): 53% | kinase still bound, per cent of control (CDC42BPB (human)): 75% | kinase still bound, per cent of control [5]: 100% | kinase still bound, per cent of control (CAMK1D (human)): 100%
